The text below walks through data of patent publication US10131644B2, “Aryl sultam derivatives as RORc modulators” (Genentech, Inc., priority 2014, dated 2018).

Counter-ions that a name gives are not always drawn.

In this assay the target is T1, RORc (Homo sapiens, UniProt P51449).
T1 sequence (P51449 269-508 limits assumed): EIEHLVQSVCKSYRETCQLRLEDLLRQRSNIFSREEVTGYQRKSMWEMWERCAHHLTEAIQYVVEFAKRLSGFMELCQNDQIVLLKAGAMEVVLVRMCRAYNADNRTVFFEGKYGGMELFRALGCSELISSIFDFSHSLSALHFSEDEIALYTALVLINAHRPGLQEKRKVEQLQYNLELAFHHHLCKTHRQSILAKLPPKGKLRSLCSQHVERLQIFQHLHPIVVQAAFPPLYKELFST
The experiment in a line: In vitro RORc ligand binding assay (25-[3H]hydroxycholesterol displacement). The conditions noted are these: IC50, IC50 values for RORc; unit inferred.
For orientation: IC50 means the concentration that gives 50% inhibition. Higher therefore signals a need for much substance. In turn, `CCOC(=O)COCC1(c2ccc(CN3[C@@H](C)CC[C@H](c4ccccc4)S3(=O)=O)c(F)c2)CCOCC1` [Compound 104, ethyl 2-[[4-[3-fluoro-4-[[(3S,6R)-3-methyl-1,1-dioxo-6-phenyl-thiazinan-2-yl]methyl]phenyl]tetrahydropyran-4-yl]methoxy]acetate] yielded an IC50 of 0.0238 µM.
For the molecule `C[C@H]1CC[C@H](c2ccccc2)S(=O)(=O)N1Cc1cc(F)c(C2(O)COC2)cc1F` [Compound 192, 3-[2,5-difluoro-4-[[(3S,6R)-3-methyl-1,1-dioxo-6-phenyl-thiazinan-2-yl]methyl]phenyl]oxetan-3-ol], the IC50 is 0.00265 µM.
Regarding `CC(=O)N1CCC(C(N)=O)(c2cc(F)c(CN3[C@@H](C)CC[C@H](c4ccccc4)S3(=O)=O)cc2F)CC1` [Compound 149, 1-acetyl-4-[2,5-difluoro-4-[[(3S,6R)-3-methyl-1,1-dioxo-6-phenyl-thiazinan-2-yl]methyl]phenyl]piperidine-4-carboxamide], the IC50 amounted to 0.0114 µM.
`C[C@H]1CC[C@H](c2ccccc2)S(=O)(=O)N1Cc1ccc(C2(N)CC2)cc1F` [Compound 153, 1-[3-fluoro-4-[[(3S,6R)-3-methyl-1,1-dioxo-6-phenyl-thiazinan-2-yl]methyl]phenyl]cyclopropanamine; hydrochloride] came in with an IC50 of 0.572 µM. This IC50 is about 50-fold higher than that of the molecule before.
For `C[C@H]1CC[C@H](c2ccccc2)S(=O)(=O)N1Cc1ccc(C2([C@@H](O)CO)CCOCC2)cc1F` [Compound 98, (1R)-1-[4-[3-fluoro-4-[[(3S,6R)-3-methyl-1,1-dioxo-6-phenyl-thiazinan-2-yl]methyl]phenyl]tetrahydropyran-4-yl]ethane-1,2-diol], the IC50 came to 0.063 µM.
The figure for `C[C@H]1CC[C@H](c2ccccc2)S(=O)(=O)N1Cc1ccc(C2(COCCO)CCOCC2)cc1F` [Compound 83, 2-[[4-[3-fluoro-4-[[(3S,6R)-3-methyl-1,1-dioxo-6-phenyl-thiazinan-2-yl]methyl]phenyl]tetrahydropyran-4-yl]methoxy]ethanol] is 0.046 µM.
`C[C@H]1CC[C@H](c2ccccc2)S(=O)(=O)N1Cc1ccc(C2(C(N)=O)CCC3(CC2)OCCO3)cc1F` [Example 22, 8-[3-Fluoro-4-((3S,6R)-3-methyl-1,1-dioxo-6-phenyl-[1,2]thiazinan-2-ylmethyl)-phenyl]-1,4-dioxa-spiro[4.5]decane-8-carboxylic acid amide] had an IC50 of 0.03 µM.
Regarding `COC(=O)C1(c2ccc(CN3C(C)CCC(c4ccccc4)S3(=O)=O)c(F)c2)CCC(n2cnnc2)CC1` (stereo not drawn) [Compound 46, methyl 1-(3-fluoro-4-((3-methyl-1,1-dioxido-6-phenyl-1,2-thiazinan-2-yl)methyl)phenyl)-4-(4H-1,2,4-triazol-4-yl)cyclohexanecarboxylate], the IC50 was 0.054 µM.
The figure for `COCCNC(=O)C1(c2ccc(CN3[C@@H](C)CC[C@H](c4ccccc4)S3(=O)=O)c(F)c2)CCOCC1` [Compound 64, 4-[3-fluoro-4-[[(3S,6R)-3-methyl-1,1-dioxo-6-phenyl-thiazinan-2-yl]methyl]phenyl]-N-(2-methoxyethyl)tetrahydropyran-4-carboxamide] is 0.089 µM.
Turning to `C[C@H]1CC[C@H](c2ccccc2)S(=O)(=O)N1Cc1cc(F)c(C2(CO)CCC(O)CC2)cc1F` (stereo partly drawn) [Compound 130, 4-[2,5-difluoro-4-[[(3S,6R)-3-methyl-1,1-dioxo-6-phenyl-thiazinan-2-yl]methyl]phenyl]-4-(hydroxymethyl)cyclohexanol], the IC50 was 0.0347 µM.
Molecule `CNC(=O)CCC1(c2cc(F)c(CN3[C@@H](C)CC[C@H](c4ccccc4)S3(=O)=O)cc2F)CC1` [Compound 146, 3-[1-[2,5-difluoro-4-[[(3S,6R)-3-methyl-1,1-dioxo-6-phenyl-thiazinan-2-yl]methyl]phenyl]cyclopropyl]-N-methyl-propanamide] had a half-inhibitory concentration (IC50) of 0.0327 µM.
For `C[C@H]1CC[C@H](c2ccccc2)S(=O)(=O)N1Cc1ccc(OCC2(CO)CCOCC2)cc1F` [Example 3, {4-{3-Fluoro-4-((3S,6R)-3-methyl-1,1-dioxo-6-phenyl-[1,2]thiazinan-2-ylmethyl)-phenoxymethyl]-tetrahydro-pyran-4-yl}-methanol] the value was 0.082 µM.
